Assays:
[1] = target: T1, YAP-TEAD interaction (Homo sapiens, UniProt P28347); test: Cell-based TEAD-GAL4 transactivation assay (luciferase reporter); conditions: HEK293 cells transfected with TEAD1-Gal4, YAP mutant (S127A, S397A) and luciferase reporter, compounds 0.1 μM to 30 μM; for Emax: HEK293, 24 h, read-out: TEAD-GAL4 Transactivation activity Max Act; for IC50: 24 h
T1 construct: expressed in transfected cells; host or cells: HEK293 GripTite 293 MSR (Invitrogen R795-07)
In short: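 HEK293 cells transiently transfected with Gal4-DBD–full-length human TEAD1, full-length YAP S127A/S397A (YAP/TEAD ratio 10) and a 5×GAL4-RE TK-luciferase reporter. Six hours later, compounds added semi-log from 0.1 to 30 μM (DMSO 0.5% control) for 24 h. Luciferase read; IC50 from 3-parameter fit.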

T1 sequence (P28347 whole entry, the tested form may be a part): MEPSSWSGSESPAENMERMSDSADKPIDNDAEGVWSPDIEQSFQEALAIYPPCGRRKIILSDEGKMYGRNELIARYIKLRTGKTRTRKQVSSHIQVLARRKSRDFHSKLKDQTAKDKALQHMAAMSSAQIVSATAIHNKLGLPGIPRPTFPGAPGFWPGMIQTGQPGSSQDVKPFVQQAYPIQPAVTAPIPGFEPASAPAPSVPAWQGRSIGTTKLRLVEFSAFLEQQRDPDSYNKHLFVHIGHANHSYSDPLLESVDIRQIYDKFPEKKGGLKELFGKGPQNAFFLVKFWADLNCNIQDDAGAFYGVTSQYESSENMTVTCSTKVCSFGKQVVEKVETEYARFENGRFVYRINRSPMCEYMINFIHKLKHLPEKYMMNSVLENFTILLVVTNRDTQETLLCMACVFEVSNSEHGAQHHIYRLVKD

Row | Structure (SMILES) | Emax [1] [%] | IC50 [1] [µM] | melting point [°C]
1 | COc1cc(/C=N/N(C)c2ncnc3c(C)csc23)ccc1B(O)O [Ex71, [2-methoxy-4-[(E)-[methyl-(7-methylthieno[3,2-d]pyrimidin-4-yl) hydrazono]methyl]phenyl]boronic acid] | 68 | 1.14 | 237 to 267
2 | CN(/N=C/c1ccc2c(c1)COB2O)c1ncnc2c1cnn2C [Ex76, N-[(E)-(1-hydroxy-3H-2,1-benzoxaborol-5-yl)methyleneamino]-N,1-dimethyl-pyrazolo[3,4-d]pyrimidin-4-amine] | 86 | 0.96 | 250 to 260
3 | Cc1csc2c(N(C)/N=C/c3ccc4c(c3)COB4O)ncnc12 [Ex77, N-[(E)-(1-hydroxy-3H-2,1-benzoxaborol-5-yl)methyleneamino]-N,7-dimethyl-thieno[3,2-d]pyrimidin-4-amine] | 82 | 0.32 | 231
4 | CCN(/N=C/c1ccc2c(c1)COB2O)c1ncnc2nc(N(C)C)sc12 [Ex79, N7-ethyl-N7-[(E)-(1-hydroxy-3H-2,1-benzoxaborol-5-yl)methyleneamino]-N2,N2-dimethyl-thiazolo[4,5-d]pyrimidine-2,7-diamine] | 90 | 1.01 | 247 to 253
5 | CCN(/N=C/c1ccc2c(c1)COB2O)c1ncnc2c(C)n[nH]c12 [Ex80, N-ethyl-N-[(E)-(1-hydroxy-3H-2,1-benzoxaborol-5-yl)methyleneamino]-3-methyl-1H-pyrazolo[4,3-d]pyrimidin-7-amine] | 69 | 1.96 | 265 to 276
6 | CCN(/N=C/c1ccc2c(c1)COB2O)c1ncnc2nc(N3CCOCC3)sc12 [Ex82, N-ethyl-N-[(E)-(1-hydroxy-3H-2,1-benzoxaborol-5-yl)methyleneamino]-2-morpholino-thiazolo[4,5-d]pyrimidin-7-amine] | 89 | 2.37 | 183 to 189
7 | CCN(/N=C/c1ccc2c(c1)COB2O)c1ncnc2nc(SC)sc12.Cl [Ex83, N-ethyl-N-[(E)-(1-hydroxy-3H-2,1-benzoxaborol-5-yl)methyleneamino]-2-methylsulfanyl-thiazolo[4,5-d]pyrimidin-7-amine hydrochloride] | 94 | 0.23 | 248 to 264
8 | CSc1nc2ncnc(N(CC(C)C)/N=C/c3ccc4c(c3)COB4O)c2s1 [Ex92, N-[(E)-(1-hydroxy-3H-2,1-benzoxaborol-5-yl)methyleneamino]-N-isobutyl-2-methylsulfanyl-thiazolo[4,5-d]pyrimidin-7-amine] | 91 | 0.17 | 214 to 246
9 | COCCN(/N=C/c1ccc2c(c1)COB2O)c1ncnc2c(C)csc12 [Ex94, N-[(E)-(1-hydroxy-3H-2,1-benzoxaborol-5-yl)methyleneamino]-N-(2-methoxyethyl)-7-methyl-thieno[3,2-d]pyrimidin-4-amine] | 80 | 0.46 | 240 to 253
10 | COCCN(/N=C/c1ccc2c(c1)COB2O)c1ncnc2nc(SC)sc12.Cl [Ex95, N-[(E)-(1-hydroxy-3H-2,1-benzoxaborol-5-yl)methyleneamino]-N-(2-methoxyethyl)-2-methylsulfanyl-thiazolo[4,5-d]pyrimidin-7-amine, hydrochloride] | 85 | 0.13 | 252 to 264
11 | CN(/N=C/c1ccc2c(c1)COB2O)c1ncnc2c1[nH]c(=O)n2C [Ex98, 6-[[(E)-(1-hydroxy-3H-2,1-benzoxaborol-5-yl)methyleneamino]-methyl-amino]-9-methyl-7H-purin-8-one] | 86 | 1.31 | 180 to 200
12 | CN(/N=C/c1ccc2c(c1)COB2O)c1ncnc2c1CC(=O)N2C [Ex99, 4-[[(E)-(1-hydroxy-3H-2,1-benzoxaborol-5-yl)methyleneamino]-methyl-amino]-7-methyl-5H-pyrrolo[2,3-d]pyrimidin-6-one] | 91 | 2.12 | 288 to 307
13 | CN(/N=C/c1ccc2c(c1)COB2O)c1ncnc2c1[nH]c(=O)n2C12CC(C1)C2 [Ex110, 9-(3-bicyclo[1.1.1]pentanyl)-6-[[(E)-(1-hydroxy-3H-2,1-benzoxaborol-5-yl)methyleneamino]-methyl-amino]-7H-purin-8-one] | 81 | 2.41 | 259 to 270
14 | COCCN(/N=C/c1ccc2c(c1)COB2O)C1=NS(=O)(=O)c2ccccc21 [Ex 24, N-[(E)-(1-hydroxy-3H-2,1-benzoxaborol-5-yl)methyleneamino]-N-(2-methoxyethyl)-1,1-dioxo-1,2-benzothiazol-3-amine] | 76 | 5.19 | 227
15 | CCN(/N=C/c1ccc2c(c1)COB2O)C1=NS(=O)(=O)c2ccccc21 [Ex 27, N-ethyl-N-[(E)-(1-hydroxy-3H-2,1-benzoxaborol-5-yl)methyleneamino]-1,1-dioxo-1,2-benzothiazol-3-amine] | 83 | 6.46 | 218
16 | Cc1ccc2c(c1)S(=O)(=O)N=C2N(CC(C)C)/N=C/c1ccc2c(c1)COB2O [Ex 31, N-[(E)-(1-hydroxy-3H-2,1-benzoxaborol-5-yl)methyleneamino]-N-isobutyl-6-methyl-1,1-dioxo-1,2-benzothiazol-3-amine] | 90 | 4.13 | 182
17 | CCN(/N=C/c1ccc2c(c1)COB2O)c1ncnc2[nH]ccc12 [Ex 39, N-ethyl-N-[(E)-(1-hydroxy-3H-2,1-benzoxaborol-5-yl)methyleneamino]-7H-pyrrolo[2,3-d]pyrimidin-4-amine] | 81 | 1.2 | 245
18 | CCN(/N=C/c1ccc2c(c1)COB2O)c1ncnc2occc12 [Ex 43, N-ethyl-N-[(E)-(1-hydroxy-3H-2,1-benzoxaborol-5-yl)methyleneamino]furo[2,3-d]pyrimidin-4-amine] | 78 | 0.42 | 225

Reference: patent US11999758B2, “Inhibitors of the YAP/TAZ-TEAD interaction and their use in the treatment of cancer” (INVENTIVA, priority 2018, dated 2024)
